In patent publication US5414144A, “Propylene glycol cyclohexyl ether derivatives, method of producing same and uses thereof” (Asahi Kasei Kogyo Kabushiki Kaisha, priority 1993, dated 1995):
Like-named read-outs stand apart in the source and are kept apart here.

Tests used:
[1] = background, result in words; cited from earlier work
Flash point (JIS-K2265) = assay type: physicochemical
Separability from water = assay type: physicochemical; conditions: result in words
Procedure: (6) Separability from Water
An equivolume mixture of a sample compound and water was vigorously shaken and then allowed to stand. After a period of 5 minutes, the degree of separation of the sample compound from water was judged by the naked eye.

[2] = assay type: physicochemical
Procedure: The boiling point was determined from the temperature and pressure of the vapor at the top of the distillation column.

[3] = for Solubility (In water) / Solubility (Water in): 20° C.; for Solubility (In water): solubility of the sample compound in water; for Solubility (In water) / solubility in water: 30 min; for Solubility (Water in): solubility of water in the sample compound; for solubility in water: Table 2
Procedure: (3) Solubility ("water in" and "in water")
10 g of a sample compound (liquid) was mixed with 10 g of water and then allowed to stand still for 30 minutes, so that the mixture was permitted to separate into a sample compound layer and an aqueous layer. Then, the water content of the sample compound layer was measured using a Karl Fischer moisture meter manufactured by Kyoto Electronics Co., Ltd., Japan, and the obtained value was taken as a solubility of water in the sample compound. The content of the sample compound in the aqueous layer was measured using GC and the obtained value was taken as a solubility of the sample compound in water.

Relative drying rate = assay type: physicochemical; conditions: 50° C., 20 minutes; relative to Elease M-9000
Procedure: (10) Relative Drying Rate
(§1) 10 g of a sample compound and 10 g of a glycol ether-type detergent (Elease M-9000, manufactured by Asahi Kasei Kogyo K.K., Japan) were individually placed in an oven and heated at 50° C. for 20 minutes. Then, a measurement was done with respect to the decrease in the weight of the sample compound as well as the decrease in the weight of Elease M-9000. The relative drying rate was calculated according to the following formula: [formula] (11) Oil Solubility Characteristics

[4] = Oil solubility characteristics; assay type: physicochemical; conditions: 100 g sample compound
Procedure: as §1
Each of the oils mentioned below was individually added to 100 g of a sample compound while stirring until a saturation of the sample compound with the oil was reached. The solubility (%) was expressed in terms of the percent expression of the weight of the oil dissolved in 100 g of the sample compound, with the dissolution of 100 g of the oil being taken as 100%. For example, when the amount of the oil dissolved was n g, the solubility was expressed as n %. The above-mentioned oils were: a mineral oil (Smoil PS-260, manufactured by Matsumura Sekiyu Kenkyusho, Japan), a drawing oil (Daphne Masterdraw 533WD, manufactured by Idemitsu Kosan Co., Ltd., Japan), a press oil (Uni Press DP-120, manufactured by Nippon Sekiyu Co., Ltd., Japan) and a rosin oil (sold by Kishida Kagaku Co., Ltd., Japan).

Viscosity = assay type: physicochemical; conditions: 25° C.
Procedure: The viscosity was measured at 25° C. using a digital viscometer (Model DVL-B, manufactured by Toki Sangyo Co., Ltd., Japan).

[5] = Overall comparison of properties in Table 2; conditions: Table 2 comparison in words
Procedure: Properties of the product were measured and results of the measurements are shown in Table 2, together with those of Example 1 for easy comparison.

Row | Structure (SMILES) | Flash point (Flash point (JIS-K2265)) [°C] | Boiling point [2] [°C] | Solubility (In water) [3] [%] | Solubility (Water in) [3] [%] | further results
1 | CCOCCOCCOCC [Comparative Example 8, Diethylene glycol diethyl ether] | 72 |  |  |  | solubility in water [1]: extremely high solubility in water; toxicity [1]: high toxicity; separability from water (Separability from water): poor
2 | CCOCC(C)OC1CCCCC1 (stereo not drawn) [Example 2, propylene glycol ethyl cyclohexyl ether] | 80 | 192 | 0.2 | 0.7 | 
3 | CCCCCCOCCOCCO [diethylene glycol monohexyl ether] |  |  |  |  | viscosity [1]: disadvantageously high viscosity
4 | COCC(C)OC1CCCCC1O (stereo not drawn) [Example 3, 2-hydroxycyclohexyloxymethoxypropane] |  |  | 2.7 | 11.7 | Boiling point ([2]; Measured at 5 mm/Hg): 93 °C
5 | CCCCOCC(C)OCCCC (stereo not drawn) [compound 5, Propylene glycol di-n-butyl ether] | 69 | 190 | 2.0 | 0.6 | 
6 | COCC(C)OC(C)=O (stereo not drawn) [compound 4, Propylene glycol methyl ether acetate] | 47 | 146 | 3.0 | 19.0 | 
7 | COCCOCCOC [diethylene glycol dimethyl ether] |  |  |  |  | solubility in water [1]: extremely high solubility in water; toxicity [1]: high toxicity
8 | CCCCCCOCCOCCO [Comparative Example 2, Diethylene glycol mono-n-hexyl ether] | 140 |  |  |  | separability from water (Separability from water): good
9 | CCCCOCC(C)O (stereo not drawn) [compound 3, Propylene glycol mono-n-butyl ether] | 59 | 170 | 5.6 | 14.9 | 
10 | CC(O)COC1CCCCC1 (stereo not drawn) [Comparative Example 9, 1-cyclohexyloxy-2-propanol] | 88 | 208 |  |  | dissolving power for oils [1]: poor dissolving power for oils; drying rate [1]: low drying rate; solubility in water [1]: high solubility in water; viscosity [1]: high viscosity; Relative drying rate (Relative drying rate): 36%; Oil solubility characteristics (Drawing oil) [4]: E (Less than 2%); Oil solubility characteristics (Mineral oil) [4]: A (50% or more); Oil solubility characteristics (Press oil) [4]: A (50% or more); Oil solubility characteristics (Rosin oil) [4]: C (10% to less than 20%); viscosity (Viscosity): 14 cP; solubility in water [3]: 1%
11 | COCC(C)OC1CCCCC1 (stereo not drawn) [Example 1, propylene glycol methyl cyclohexyl ether] | 73 | 175 | 0.3 | 1.4 | results vs Comparative Example 9 (relative drying rate, viscosity, solubility in water, oil solubility) [5]: very superior; Relative drying rate (Relative drying rate): 77%; Oil solubility characteristics (Drawing oil) [4]: A (50% or more); Oil solubility characteristics (Mineral oil) [4]: A (50% or more); Oil solubility characteristics (Press oil) [4]: A (50% or more); Oil solubility characteristics (Rosin oil) [4]: A (50% or more); viscosity (Viscosity): 2.4 cP; solubility in water [3]: 0.3%
12 | C=C(C)C1CC=C(C)CC1 (stereo not drawn) [Comparative Example 6, Limonene] | 45 |  |  |  | Flash point (Flash point (JIS-K2265); result in words): low; separability from water (Separability from water): good
13 | CCCCCCOCCO [Comparative Example 1, Ethylene glycol mono-n-hexyl ether] | 82 | 208 | 1.0 | 18.8 | 
14 | CCCCOCCOCCO [Comparative Example 7, Diethylene glycol monobutyl ether] | 116 |  |  |  | solubility in water [1]: disadvantageously high; separability from water (Separability from water): poor
